In one data set the test system is HIF-1α. In words: Tumor HIF-1α immunohistochemistry in MCF-7 xenografts. The data set is classed as in vivo, mouse. The following applies: five daily doses of 25 mg/kg, 24 hours after last dose. The protocol:
(§1) FIG. 5. Inhibition of tumor HIF-1α, VEGF and thioredoxin reductase by repeated administration of PX-916. Female scid mice were implanted 1d previously with a 90-d 17β-estradiol slow release pellet were inoculated s.c. with 10^7 MCF-7 human breast cancer cells. When the tumors were 300 mm^3, vehicle or 25 mg/kg/d PX-916 was given i.v. for five doses. Twenty four hours later, the tumors were removed and stained by immunohistochemistry for HIF-1α and VEGF (A) or assayed for thioredoxin reductase activity (B). Columns mean of four mice, SE. P≦0.05.
(§2) Levels of the HIF-1α transcription factor and its downstream target VEGF are increased by thioredoxin-1 expression. We examined the effect of PX-916 administration on tumor HIF-1α and VEGF levels (FIG. 5A). Twenty-four hours after the last dose of five daily doses of PX-916 of 25 mg/kg, there was a decrease in MCF-7 xenograft staining for both HIF-1α and VEGF. At the same time, levels of tumor thioredoxin reductase activity were decreased by 75% (FIG. 5B).

Data set [1] has as its system A-673 human rhabdomyosarcoma xenografts. In words: Antitumor activity, A-673 rhabdomyosarcoma xenograft. It counts as in vivo, mouse. Also on record: dose or concentration left out as unconfirmed. The note with it: ip. As for the experimental part: FIG. 4. Antitumor activity of PX-916. A. Female beige nude mice were inoculated subcutaneously (s.c.) with 10^7 A-673 rhabdomyosarcoma cells. […] B. Female scid mice were inoculated s.c. with 10^7 SHP-77 human small cell lung cancer cells. When tumors were 130 mm^3 on day 17 (arrow) dosing was begun with (∘) vehicle alone; (▪) PX-916 10 mg/kg i.v. daily for 8 doses; (▴) PX-916 25 mg/kg i.v. daily for 5 doses. C. Female scid mice implanted 1 day previously with a 17-β-estradiol 60 day slow release pellet were inoculated s.c. with 10^7 MCF-7 human breast cancer cells. When tumors were 180 mm^3 on day 8 (arrow) dosing was begun with (∘) vehicle alone; (⋄) PX-916 27.5 mg/kg i.v. daily for 5 doses. In both A and B values are the mean of 8 mice per group and bars are SE.
(§3) A single intravenous (i.v.) dose of PX-916 of 25 mg/kg inhibited MCF-7 human tumor xenograft TR up to about 60% at 24 hr and the inhibition was maintained for at least 48 hr (FIG. 3C). […] In this study 3 of eight nice had no histologically detectable tumor when the study was terminated on day 42.

For a further data set, the system named is VEGF. In words: Tumor VEGF immunohistochemistry in MCF-7 xenografts. The data set is classed as in vivo, mouse. The following applies: five daily doses of 25 mg/kg, 24 hours after last dose. As for the experimental part:
as §1, §2

A further data set in a line: Aqueous solubility. The data set is classed as physicochemical.
Data set [2] has as its target T1, human glutathione reductase (Homo sapiens, UniProt P00390).
T1 sequence (P00390 45-522 limits assumed): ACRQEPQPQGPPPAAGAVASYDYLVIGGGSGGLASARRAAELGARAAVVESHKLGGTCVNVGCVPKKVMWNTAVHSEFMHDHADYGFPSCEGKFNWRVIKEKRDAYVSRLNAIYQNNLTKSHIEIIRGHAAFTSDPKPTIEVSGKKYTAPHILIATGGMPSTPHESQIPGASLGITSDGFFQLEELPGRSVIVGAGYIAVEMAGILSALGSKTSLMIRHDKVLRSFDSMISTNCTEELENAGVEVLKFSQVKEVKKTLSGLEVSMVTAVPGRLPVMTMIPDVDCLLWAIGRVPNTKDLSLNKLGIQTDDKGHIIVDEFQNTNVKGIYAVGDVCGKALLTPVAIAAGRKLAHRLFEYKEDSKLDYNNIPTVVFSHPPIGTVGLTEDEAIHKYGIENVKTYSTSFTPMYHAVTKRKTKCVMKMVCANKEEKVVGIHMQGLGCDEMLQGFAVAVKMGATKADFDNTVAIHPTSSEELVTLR
Description: Inhibition of human glutathione reductase (selectivity). The data set is classed as biochemical. As for the experimental part:
Based upon the observation that PX-916 was rapidly converted to PX-960 in aqueous solution, the ability of PX-960 to inhibit purified human TR was measured and found to be similar to that of PX-916 (Table 2). PX-916 was a selective inhibitor of human TR compared to two other NADPH dependent reductases with a selectivity of at least 200 for human glutathione reductase and human cytochrome P-450 reductase (Table 3).

The subject of data set [3] is SHP-77 human small cell lung cancer. In words: Antitumor activity, SHP-77 small cell lung cancer xenograft. It counts as in vivo, mouse. As for the experimental part:
FIG. 4. Antitumor activity of PX-916. A. Female beige nude mice were inoculated subcutaneously (s.c.) with 10^7 A-673 rhabdomyosarcoma cells. When tumors were 100 mm^3 on day 8 (arrow) dosing was begun with (∘) vehicle alone; (▴) PX-916 10 mg/kg intraperitoneally (i.p.) daily for 4 doses. B. Female scid mice were inoculated s.c. with 10^7 SHP-77 human small cell lung cancer cells. When tumors were 130 mm^3 on day 17 (arrow) dosing was begun with (∘) vehicle alone; (▪) PX-916 10 mg/kg i.v. daily for 8 doses; (▴) PX-916 25 mg/kg i.v. daily for 5 doses. C. Female scid mice implanted 1 day previously with a 17-β-estradiol 60 day slow release pellet were inoculated s.c. with 10^7 MCF-7 human breast cancer cells. When tumors were 180 mm^3 on day 8 (arrow) dosing was begun with (∘) vehicle alone; (⋄) PX-916 27.5 mg/kg i.v. daily for 5 doses. In both A and B values are the mean of 8 mice per group and bars are SE.
as §3

The mark [4] stands for this setting: 10 mg/kg i.v. daily for 8 doses.
Where [5] appears, read: 25 mg/kg i.v. daily for 5 doses.

Converted amounts (≈) assume the structure as drawn. Like-named read-outs stand apart in the source and are kept apart here.

Usually solubility stands for the dissolved amount per volume that the medium holds. As a reminder, the IC50 is the concentration at which inhibition is half-maximal. As to `NCC(=O)Oc1ccc2c3c(cccc13)OC1(C=CC(=O)c3c(O)cccc31)O2` (stereo not drawn) [PX-916, O-glycyl naphthoquinone spiroketal], the “MCF-7 xenograft staining for HIF-1α” value in the data set on HIF-1α is reported as “decrease”. The tumor growth inhibition in data set [1] turned out to be 97%; in data set [3] (setting [4]), 39%; in data set [3] (setting [5]), 82%. Moreover, the tumor growth rate is reported as 5±3 mm^3/d in data set [1] (5 days after dosing); “about 91±24 mm^3/day” in data set [3] (setting [4]); 27 mm^3/day in data set [3] (25 mg/kg i.v. daily for 5 doses, 5 days after end of dosing). Further, the “MCF-7 xenograft staining for VEGF” value in the data set on VEGF was “decrease”. Besides, the “apparent maximum solubility in water” value in the data set “Aqueous solubility” was “around 10 mg”. For the same compound, the “improvement of aqueous solubility vs PX-960” value in the data set “Aqueous solubility” is on record as 1-2 orders of magnitude. The solubility in “Aqueous solubility” (20% β-cyclodextrin, aqueous with cosolvent or surfactant or cyclodextrin, read-out: solubility with 20% β-cyclodextrin) is 2000 µg/mL (≈ 5.14 mM); in the data set “Aqueous solubility” (water, read-out: water solubility) it was 700 µg/mL (≈ 1.8 mM). For the same compound, the “concentration increase needed to inhibit glutathione reductase” value in data set [2] is “greater than 100 fold”. Also, in data set [2], the “selectivity for human TR vs human glutathione reductase” value was “at least 200”. The “Selectivity for TR vs glutathione reductase” value in data set [2] (Table 3) is reported as above 200. Also, the IC50 in data set [2] (Table 3, read-out: Inhibition IC50, glutathione reductase (red blood cell)) was above 50 µM. Besides, the “mice with no histologically detectable tumor on day 42” value in data set [3] (setting [5]) is listed as 3 of eight. Moreover, the tumor regressions entry in data set [3] (in words) is on record as “complete tumor regressions were seen in some mice”.

For the origin of these results see patent publication US20120226031A1, “PALMARUMYCIN BASED INHIBITORS OF THIOREDOXIN AND METHODS OF USING SAME” (ARIZONA BOARD OF REGENTS, ACTING ON BEHALF OF THE …, priority 2005, published 2012).
